Assay results reported in patent US12709733B2, “Cell culture media” (Merck Patent GmbH, priority 2019, dated 2026).
Values after ≈ are worked out from the molar mass of the structure shown. One block for each compound: values may come before it.

Tests used:
[1] = Maximum solubility in Cellvento 4Feed depleted in Ile and Leu (turbidity measurement); assay type: physicochemical; conditions: for times more soluble than the native amino acid in Cellvento 4Feed depleted in Ile/Leu / solubility at 10 min: 113 g/L feed; for times more soluble than the native amino acid in Cellvento 4Feed depleted in Ile/Leu: pH 7.0+/-0.2; for solubility at 10 min: aqueous with cosolvent or surfactant or cyclodextrin, thermodynamic from solid, pH 7.0+/-0.2, 25° C., soluble = turbidity below 5 NTU
Experimental: Increasing amounts of the Lac-Leu and Lac-Ile and salts thereof were added to a cell culture feed formulation (Cellvento® 4Feed) depleted in Ile and Leu. Similarly, increasing amounts of Ile and Leu were added to the same feed formulation as a control. The total concentration of this feed formulation was 113 g/L and the pH was 7.0+/−0.2. In small scale experiments, after each addition of either the amino acid or the Lac-AA, the feed was agitated for 10 mins and turbidity was measured. The experiments were performed at room temperature (25° C.).
A solution having a turbidity below 5 NTU is considered soluble.

[2] = Stability of Lac-AA in Cellvento 4Feed-Ile/Leu by LC-MS; assay type: physicochemical; conditions: stored up to 3 months at 4° C. or RT protected from light
Experimental: To monitor the stability of Lac-AA in the complex feed mixture, a targeted quantitative LC-MS method was developed. Serial dilutions of Lac-Leu and Lac-Ile in Cellvento® 4Feed—Ile/Leu pH 7.0 were performed from 100 mM to 100 μM to determine the linearity of the method. A 200-fold dilution in water was performed prior to LC-MS analysis. The method was developed on a UHPLC (Vanquish, Thermo Fisher) coupled with an ESI-Q-ToF mass spectrometer (Impact II, Bruker Daltonics).
Briefly, 1 μL of sample were loaded in 99.9% buffer A (20 mM ammonium formate/0.1% FA) onto a XSelect HSS T3 column (2.1×150 mm, 3.5 μm, Waters) thermostated at 40° C. with a flowrate of 300 μL/min and eluted with a multistep gradient of buffer B (100% methanol) presented in Table 2.
LC-MS analyses were performed using the Impact II mass spectrometer equipped with an ESI source (Bruker Daltonics). MS acquisition was performed in negative mode with end plate offset and capillary voltages set at 500 and 3500 V, respectively. Nebulizer and dry gas (250° C.) were set at 1.4 bar and 9.0 L/min, respectively. MS spectra were acquired over the m/z range 20-1000 with a scan rate of 5 Hz. […]
Using the method previously developed, the stability of Lac-Ile and Lac-Leu in Cellvento® 4Feed-Ile/Leu was monitored in samples stored at 4° C. and RT protected from light for 3 months.

[3] = Maximum solubility in water at 25° C. (saturated solution, residual mass after infrared drying); assay type: physicochemical; conditions: for increase in solubility compared to the respective amino acid / Solubility 25° C. in g/kg (corresponding Lac-AA) / Solubility 25° C. in g/kg (amino acid): water; for increase in solubility compared to the respective amino acid / Solubility 25° C. in g/kg (corresponding Lac-AA) / Solubility 25° C. in g/kg (amino acid) / solubility: 25° C.; for Solubility 25° C. in g/kg (corresponding Lac-AA): Lac-AA sodium salt; for Solubility 25° C. in g/kg (amino acid): native amino acid; for solubility: stated in description; for maximum solubilities obtained in water: separate experiments comparing Leu, Leu sodium salt and lac-Leu sodium salt
Experimental: After sedimentation, the solution was dried using infrared (120° C., 120 min) and the residual mass was determined in g/kg.

[4] = system: CHOK1GS suspension cell line expressing a human IgG1; assay: Fed-batch cell culture with Lac-AA replacing the amino acid in the feed, CHOK1GS clone; assay type: cell-based; conditions: for concentration of Ile in the spent medium / concentration of Leu in the spent medium / effect on viable cell density (VCD) compared to positive control: 17-days fed-batch; for effect on viable cell density (VCD) compared to positive control: Lac-AA replacing amino acid in feed; for IgG titer compared to control: day 14; for increase of free lactate (area under the curve of lactate concentration): supernatant over the fed-batch process
Experimental: For cell culture experiments, a CHOK1GS suspension cell line expressing a human IgG1, was used. Cells were cultivated in quadruplicate in Cellvento® 4CHO medium (Merck Darmstadt, Germany) using 50 mL spin tubes with a starting culture volume of 30 mL and a seeding density of 2×10^5 cells/mL.
Incubation was carried out at 37° C., 5% CO2, 80% humidity and an agitation of 320 rpm. The Lac-AA were added in the Feed (Cellvento® 4Feed depleted in Ile and leu) instead of their respective amino acids. The pH of all the feeds was neutral (pH 7.0+/−0.2). The positive control contained the normal amino acids whereas the negative control contained the feed depleted in the respective amino acid and without addition of Lac-AA. Feeding was carried out at days 3, 5, 7, 10, 12 and 14 at the following v/v ratios (3, 3, 6, 3, 3 and 3%). Glucose was quantified daily and adjusted to 6 g/L using a 400 g/L glucose solution. The experiment was repeated at least 3 times.
The viable cell density (VCD) and viability were evaluated with a Vi-CELL XR (Beckman Coulter, Fullerton, CA). Metabolite concentrations were monitored using a Cedex Bio HT (Roche Diagnostics, Mannheim, Germany) based on spectrophotometric and turbidometric methods. Quantification of amino acids was carried out via UPLC after derivatization with the AccQ·TagUltra® reagent kit. Derivatization, chromatography and data analysis were carried out following the supplier recommendations (Waters, Milford, MA).

[5] = system: CHODG44 clone producing an IgG1; assay: Fed-batch experiments with a CHODG44 clone; assay type: cell-based
Source text: Results (FIG. 16, 17, 18) indicate a similar VCD and IgG titer for the Lac-Leu and Lac-Ile conditions compared to the control positive control. […] The explanation for this difference in behavior between CHOK1GS cells and this DG44 cell line is currently unknown. The Leu and Ile concentrations in the spent media (FIG. 19 and) decreased during the first day of the FB culture to finally increase again after D7. This behavior is similar to the behavior seen for CHOK1GS cells and indicate a slow release process of the free AA from the derivatives.

[6] = system: CHOK1GS suspension cell line expressing a human IgG1; assay: Quality of the antibody produced in the fed-batch process (glycosylation, aggregation/fragmentation, charge variants); assay type: cell-based; conditions: IgG1 purified from supernatant
Experimental: The quality of the antibody produced in the control fed-batch process (with feed containing Ile and Leu) was compared to the quality of the antibody produced with feed depleted in either Leu and Ile and supplemented with either Lac-Leu or Lac-Ile.
The antibody was purified from the cell culture supernatant using protein A PhyTips® (PhyNexus Inc, San Jose, CA). Glycosylation patterns were analyzed by capillary gel electrophoresis with laser-induced fluorescence (CGE-LIF) after derivatization using the GlykoPrep®-plus Rapid N-Glycan Sample Preparation kit with 8-aminopyrene-1,3,6-trisulfonic acid trisodium (APTS) (Prozyme, Hayward, CA) according to the manufacturer's instructions. […] After a cleaning step to remove the remaining APTS, the relative amounts of glycans were determined using the Pharmaceutical Analysis System CESI8000 Plus (Sciex, Washington, USA) with a LIF detector (Ex: 488 nm, Em: 520 nm). […]
Antibody aggregation and fragmentation were measured using size exclusion chromatography on an Water Acquity UPLC system using a TSKgel SuperSW3000 column (Tosoh Bioscience). […] The sample concentration was adjusted to 1.0 mg/mL after the IgG purification using the storage buffer and the detection was performed using the absorbance at 214 nm. […]

SMILES: N[C@@H](Cc1ccccc1)C(=O)O [Phenylalanine]
Solubility 25° C. in g/kg (amino acid) [3]: 26.0 g/kg

SMILES: CC(C)C[C@H](N)C(=O)O [Leucine]
solubility at 10 min [1]: ~90 mM (≈ 11.8 mg/mL) | solubility [3]: about 22.1 g/kg | maximum solubilities obtained in water [3]: 22.1 g/kg | Solubility 25° C. in g/kg (amino acid) [3]: 22.1 g/kg

SMILES: CSCC[C@H](N)C(=O)O [Methionine]
Solubility 25° C. in g/kg (amino acid) [3]: 52.9 g/kg

SMILES: CC[C@H](C)[C@H](NC(=O)C(C)O)C(=O)O (stereo partly drawn) [Lac-Ile, N-lactoyl isoleucine]
turbidity at maximum tested concentration ([1]; 951 mM in Cellvento 4Feed depleted in Ile/Leu): below 5 NTU | times more soluble than the native amino acid in Cellvento 4Feed depleted in Ile/Leu [1]: at least 9 times | solubility at 10 min [1]: ≥ 951 mM | stability in Cellvento 4Feed-Ile/Leu [2]: stable | increase in solubility compared to the respective amino acid [3]: 20 fold | concentration of Ile in the spent medium [4]: decreased very rapidly until day 7 and increased again afterwards | concentration of Leu in the spent medium [4]: moderately decreased | effect on viable cell density (VCD) compared to positive control [4]: no effect on the peak VCD or overall VCD profile | IgG titer compared to control [4]: slight, but not significant higher titer | increase of free lactate (area under the curve of lactate concentration) [4]: 37% | IgG titer compared to positive control [5]: similar | VCD compared to positive control [5]: similar | glycosylation, high and low molecular weight species and charge variants of the IgG1 versus control condition [6]: no difference

SMILES: CC(C)C[C@H](N)C(=O)[O-].[Na+] [Leu sodium salt]
maximum solubilities obtained in water [3]: 86.0 g/kg

More lines, main results first:

times more soluble than the native amino acid in Cellvento 4Feed depleted in Ile/Leu [1]: 6.6 times | solubility at 10 min [1]: ~600 mM (≈ 122 mg/mL) | stability in Cellvento 4Feed-Ile/Leu [2]: stable | increase in solubility compared to the respective amino acid [3]: around 30 fold
SMILES: CC(C)C[C@H](NC(=O)C(C)O)C(=O)O (stereo partly drawn) [Lac-Leu, N-lactoyl leucine]
concentration of Ile in the spent medium [4]: decreased after day 7 | concentration of Leu in the spent medium [4]: decreased very rapidly until day 7 and increased again afterwards | effect on viable cell density (VCD) compared to positive control [4]: positive effect on the duration of the plateau phase | viable cell density in plateau phase ([4]; day 10 to day 14): ~15 million cells/mL | IgG titer compared to control [4]: slight, but not significant higher titer | increase of free lactate (area under the curve of lactate concentration) [4]: 20% | IgG titer compared to positive control [5]: similar | VCD compared to positive control [5]: similar | glycosylation, high and low molecular weight species and charge variants of the IgG1 versus control condition [6]: no difference

Solubility 25° C. in g/kg (corresponding Lac-AA) [3]: 483.1 g/kg
SMILES: CC(O)C(=O)NC(Cc1ccccc1)C(=O)[O-].[Na+] (stereo not drawn) [Lac-Phe sodium salt]

solubility at 10 min [1]: ~105 mM (≈ 13.8 mg/mL) | solubility [3]: 32.4 g/kg | Solubility 25° C. in g/kg (amino acid) [3]: 32.4 g/kg
SMILES: CC[C@H](C)[C@H](N)C(=O)O [Isoleucine]

Solubility 25° C. in g/kg (corresponding Lac-AA) [3]: 101.9 g/kg
SMILES: CC(O)C(=O)NC(Cc1ccc(O)cc1)C(=O)[O-].[Na+] (stereo not drawn) [Lac-Tyr sodium salt]

Solubility 25° C. in g/kg (amino acid) [3]: 57.8 g/kg
SMILES: CC(C)[C@H](N)C(=O)O [Valine]
